# Data published in US20170121683A1, “ARYL HYDROCARBON RECEPTOR DISRUPTION AND ENHANCEMENT” (priority 2015, published 2017).
# Tested on: hESC-derived hematopoietic cells
# Experiment: NK cell differentiation from spin-EBs on OP9-DL1, flow cytometry (Example 2)
# Format: cell-based, human
# Settings: Days 11+21 and 11+28, 1 μM SR-1 or 10 nM TCDD
# Procedure: FIG. 13A. Schema of hESC differentiation into lymphoid cells as spin-embryoid bodies (spin-EBs). hESCs are made into spin-EBs at Day 0 and cultured in Stage 1 conditions with defined cytokines to promote mesoderm development for 11 days. At Day 11, spin-EBs are transferred onto OP9-DL1 in the presence of NK cell differentiation media (NKDM) to promote lymphoid differentiation. Cells are treated beginning at Day 11+0 with either 1 μM SR-1, 10 nM TCDD, or DMSO vehicle control with media exchanges and/or harvesting performed every week for up to 4 weeks. FIG. 13B. At Day 11, differentiated spin-EBs (photo) are phenotyped for CD34^+CD45^+ expression and transferred to OP9-DL1 stroma in NKDM. Non-adherent hematopoietic cells cultured either in the presence of DMSO, SR-1, or TCDD were assessed for developing NK cell immunophenotype based on CD56^+CD45^+ expression at Days 11+21, and 11+28; representative flow cytometry plots from one differentiation are shown. FIG. 13C. Quantification of fold-change in total percentage of CD56^+CD45^+ cells at both Day 11+21 and Day 11+28 when treated with DMSO, SR-1, or TCDD. SR-1 and TCDD treatments for each differentiation are normalized to DMSO controls. n=3 independent differentiation experiments, error bars represent SEM, *p<0.05 as assessed with two-way ANOVA+Tukey-Kramer multiple comparisons post-hoc test. FIG. 13D. […]
row,Structure (SMILES),development of NK cells (CD56+CD45+) compared to DMSO treated controls
1,"CC(C)n1cnc2c(NCCc3ccc(O)cc3)nc(-c3csc4ccccc34)nc21 [SR-1, StemReginin-1]",increased development of NK cells
2,"Clc1cc2c(cc1Cl)Oc1cc(Cl)c(Cl)cc1O2 [TCDD, 2,3,7,8-tetrachlorodibenzo-p-dioxin]",fewer phenotypic NK cells
